Experiments:
human FGFR1 = target: T1, human FGFR1 (Homo sapiens, UniProt P11362); assay: 33P isotope-labeled kinase activity test (Reaction Biology Corp), FGFR1; assay type: biochemical; details: 33P-ATP 5 μM, kinase 1.5 nM, 120 min room temperature
T1 construct: purchased Invitrogen PV3146
Experimental: (§1) The IC50 value was determined using ^33P isotope-labeled kinase activity test (Reaction Biology Corp) to evaluate the inhibitory ability of the compounds to be tested on human FGFR1, FGFR2 and VEGFR2.
(§2) Buffer conditions: 20 mM Hepes (pH 7.5), 10 mM MgCl2, 1 mM EGTA, 0.02% Brij35, 0.02 mg/mL BSA, 0.1 mM Na3VO4, 2 mM DTT, 1% DMSO.
(§3) Test steps: At room temperature, the compounds to be tested were dissolved in DMSO to prepare a 10 mM solution for use. The substrate was dissolved in the newly-prepared buffer, and the kinase to be tested was added thereto and mixed well. The DMSO solution in which the compounds to be tested were dissolved was added to the above-mentioned homogeneous reaction solution using acoustic technology (Echo 550). […] After incubating for 15 minutes, to the reaction solution was added ^33P-ATP (activity: 0.01 μCi/μL, with corresponding concentration listed in Table 10) to start the reaction. […] The kinase activity data was expressed by comparing the kinase activity of the groups containing the compounds to be tested with that of the blank group (containing only DMSO). The IC50 value was obtained by curve fitting using Prism4 software (GraphPad), and the experimental results were shown in Table 11.

[1] = Pharmacokinetic study in mice, cassette intravenous injection and intragastric administration; assay type: in vivo; details: mouse, plasma, Balb/c female mice; for Vd / AUC(0-t) / clearance / half-life: IV 0.2 mg/kg; for Vd: read-out: Apparent volume of distribution Vdss; for AUC(0-t): read-out: Area under the plasma concentration-time curve from time zero to 24 hours AUC0-24 h; for clearance: read-out: Clearance rate CL; for half-life: read-out: Half-life T1/2 (converted); for bioavailability: PO 1 mg/kg vs IV 0.2 mg/kg, read-out: Bioavailability F; for AUC / Cmax / Tmax: PO 1 mg/kg; for AUC: read-out: Area under the plasma concentration-time curve AUC; for Cmax: read-out: Peak concentration Cmax; for Tmax: read-out: Time to peak Tmax
Experimental: To evaluate the pharmacokinetic behavior of the compounds of the present disclosure after Cassette intravenous injection and intragastric administration, and to investigate the bioavailability thereof after intragastric administration.
Balb/c female mice aged 7 to 10 weeks were selected, and administered intravenously and orally with the doses of 0.2 mg/kg and 1 mg/kg, respectively. The mice were fasted for at least 12 hours before administration, and feeding was resumed after 4 hours of administration. The mice were free to drink water during the entire experiment. In this experiment, Cassette administration was used, and with regard to the intravenous injection group: an appropriate amount of each compound was weighed, and mixed with 5% DMSO/10% Solutol/85% Water for vortexing to prepare a 0.1 mg/mL of clear solution; the clear solution was filtered with a microporous membrane for later use; and with regard to the intragastric administration group: an appropriate amount of each compound was weighted, and mixed with 90% (25% HP-β-CD/10% Cremophor EL) with pH being adjusted to 4 to 5 to prepare a homogeneous suspension for later use. On the day of the experiment, the animals in the intravenous injection group were administrated with the corresponding compounds via tail vein single injection, with the administration volume of 2 mL/kg; and the animals in the oral group were administrated with the corresponding compounds by single intragastric administration, with the administration volume of 10 mL/kg. The body weight of the animals was weighed before administration, and the administration volume was calculated based on the body weight. The sample collection time was: 0.083 (injection group) h, 0.25 h, 0.5 h, 1 h, 2 h, 4 h, 8 h, and 24 h. Approximately 30 uL of whole blood was collected from the saphenous vein at each time point to prepare plasma for high performance liquid chromatography-tandem mass spectrometry (LC-MS/MS) to determine the concentration. All animals were euthanized by CO2 anesthesia after PK samples at the last time point were collected. The non-compartmental model of WinNonlin™ Version 6.3 (Pharsight, Mountain View, CA) pharmacokinetic software was used to process the plasma concentration, and the pharmacokinetic parameters were calculated using the linear logarithmic trapezoidal method.

human FGFR2 = target: T2, human FGFR2 (Homo sapiens, UniProt P21802); assay: 33P isotope-labeled kinase activity test (Reaction Biology Corp), FGFR2; assay type: biochemical; details: 33P-ATP 5 μM, kinase 0.45 nM, 120 min room temperature
T2 construct: purchased Invitrogen PV3368
T2 sequence (P21802 22-821): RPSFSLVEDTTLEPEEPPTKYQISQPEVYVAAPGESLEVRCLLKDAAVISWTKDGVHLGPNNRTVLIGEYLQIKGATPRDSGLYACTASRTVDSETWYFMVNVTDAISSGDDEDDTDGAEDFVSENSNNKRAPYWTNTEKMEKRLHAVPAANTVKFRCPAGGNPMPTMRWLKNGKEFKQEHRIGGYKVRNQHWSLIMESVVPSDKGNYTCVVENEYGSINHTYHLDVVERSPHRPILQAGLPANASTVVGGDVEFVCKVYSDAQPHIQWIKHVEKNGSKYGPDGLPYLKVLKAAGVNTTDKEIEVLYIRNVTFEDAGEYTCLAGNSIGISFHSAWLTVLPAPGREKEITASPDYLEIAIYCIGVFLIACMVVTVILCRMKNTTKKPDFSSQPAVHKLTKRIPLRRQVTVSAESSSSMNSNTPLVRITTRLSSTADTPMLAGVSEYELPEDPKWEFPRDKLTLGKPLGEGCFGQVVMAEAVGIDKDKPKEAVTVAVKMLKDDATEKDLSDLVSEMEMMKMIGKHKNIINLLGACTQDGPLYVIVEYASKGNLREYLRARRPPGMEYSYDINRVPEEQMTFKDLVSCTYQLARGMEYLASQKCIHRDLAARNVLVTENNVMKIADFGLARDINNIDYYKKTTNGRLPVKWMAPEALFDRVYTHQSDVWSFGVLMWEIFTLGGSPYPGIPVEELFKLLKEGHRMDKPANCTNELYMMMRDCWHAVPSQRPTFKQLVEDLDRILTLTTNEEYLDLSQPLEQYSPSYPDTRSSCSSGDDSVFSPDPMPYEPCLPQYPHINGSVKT
Experimental: as §1, §2, §3

[2] = tested on: human gastric cancer SNU-16 cells expressing FGFR2; assay: Cell activity (proliferation) test of gastric cancer cell line SNU-16, CellTiter-Glo; assay type: cell-based; details: inhibition of proliferation
Experimental: To test the inhibitory effect of the compounds on the proliferation of human gastric cancer SNU-16 cells expressing FGFR2.
The compounds used in the test were subjected to 3-fold concentration dilution, the concentration starting from 10 μM and subjected to […], resulting in 9 concentrations: 10 μM, 2.50 μM, 0.62 μM, 0.156 μM, 39.1 nM, 9.8 nM, 2.4 nM, 0.61 nM, and 0.15 nM.
(1) Promega CellTiter-Glo luminescent cell viability assay kit (Promega-G7573).
(2) 2104 EnVision multi-tag reader, PerkinElmer.
The inhibition rate of different doses of the compounds would be calculated in the Excel file, and the IC50 data was obtained by parametric curve fitting (GraphPad Software).

[3] = tested on: human gastric cancer SNU-16 subcutaneous xenograft tumor; assay: Anti-tumor activity in mouse subcutaneous xenograft tumor model of human gastric cancer SNU-16; assay type: in vivo, nude mice; details: day 25, SNU-16 xenograft
Experimental: To determine the anti-tumor effect of the compounds of the present disclosure in a mouse subcutaneous xenograft tumor model of human gastric cancer SNU-16
preparation of tumor tissues: SNU-16 cells were routinely cultured in an RPMI-1640 culture medium containing 10% fetal bovine serum under the conditions of 5% CO2, 37° C. and saturated humidity.
Each animal was inoculated with 200 μL (8×10^6 cells/mouse) to establish a SNU-16 xenograft model. The animal status was observed regularly, and the tumor diameter was measured with an electronic vernier caliper. The data was input into an Excel spreadsheet to calculate tumor volume and monitor tumor growth.
3) The tumor diameter was measured twice a week to calculate the tumor volume, and the animal body weight was weighted and recorded.
The calculation formula of tumor volume (TV) was: TV (mm^3)=1×w^2/2, where 1 represented the long diameter of the tumor (mm); w represented the short diameter of the tumor (mm).
The anti-tumor efficacy of the compounds was evaluated by TGI (%) or relative tumor proliferation rate T/C (%). […] The relative tumor volume (RTV) was calculated according to the results of the tumor measurement. The calculation formula was RTV=Vt/V0, where V0 was the tumor volume measured at the beginning of the grouping and administration (i.e., D0), and Vt was the tumor volume corresponding to a certain measurement in the mouse. […]

[4] = target: T3, hERG potassium ion channel (Homo sapiens, UniProt Q12809); assay: Inhibition test of hERG potassium ion channel, full-automatic patch clamp (Qpatch), CHO-hERG cells; assay type: cell-based; details: highest test concentration 40 μM
T3 construct: expressed in transfected cells; host or cells: CHO-hERG cells
T3 sequence (Q12809 whole entry): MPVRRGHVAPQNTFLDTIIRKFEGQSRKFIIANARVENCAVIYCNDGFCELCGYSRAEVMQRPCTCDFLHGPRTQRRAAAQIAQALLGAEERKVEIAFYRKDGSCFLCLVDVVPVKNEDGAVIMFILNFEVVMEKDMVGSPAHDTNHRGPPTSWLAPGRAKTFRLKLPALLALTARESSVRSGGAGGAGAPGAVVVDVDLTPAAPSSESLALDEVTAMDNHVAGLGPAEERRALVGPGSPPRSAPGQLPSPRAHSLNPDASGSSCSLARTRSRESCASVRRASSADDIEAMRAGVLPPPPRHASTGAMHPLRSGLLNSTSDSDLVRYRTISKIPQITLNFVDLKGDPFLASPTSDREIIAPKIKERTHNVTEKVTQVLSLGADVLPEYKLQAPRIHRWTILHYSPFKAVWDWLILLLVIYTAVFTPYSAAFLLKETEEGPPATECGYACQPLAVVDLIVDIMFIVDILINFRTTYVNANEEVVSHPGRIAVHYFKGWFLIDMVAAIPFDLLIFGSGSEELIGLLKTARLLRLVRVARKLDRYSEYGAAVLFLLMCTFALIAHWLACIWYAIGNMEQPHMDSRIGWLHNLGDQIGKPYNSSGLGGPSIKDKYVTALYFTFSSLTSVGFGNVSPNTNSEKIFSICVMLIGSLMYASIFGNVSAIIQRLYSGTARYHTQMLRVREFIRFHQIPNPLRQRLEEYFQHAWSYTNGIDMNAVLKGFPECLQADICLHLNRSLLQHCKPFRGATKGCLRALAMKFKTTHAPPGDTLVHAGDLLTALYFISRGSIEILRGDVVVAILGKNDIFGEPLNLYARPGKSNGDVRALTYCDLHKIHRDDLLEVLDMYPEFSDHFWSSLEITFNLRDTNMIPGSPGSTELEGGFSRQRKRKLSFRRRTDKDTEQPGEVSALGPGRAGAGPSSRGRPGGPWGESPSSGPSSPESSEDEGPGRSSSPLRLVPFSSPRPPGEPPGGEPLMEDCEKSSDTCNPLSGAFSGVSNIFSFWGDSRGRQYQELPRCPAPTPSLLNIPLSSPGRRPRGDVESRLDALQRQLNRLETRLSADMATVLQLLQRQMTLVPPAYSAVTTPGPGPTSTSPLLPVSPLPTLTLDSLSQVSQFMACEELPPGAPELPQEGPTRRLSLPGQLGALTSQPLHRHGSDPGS
Experimental: To detect the effect of the compounds of the present disclosure to be tested on the hERG potassium ion channel using a full-automatic patch clamp method.
1.1 CHO-hERG cells were cultured in a 175 cm^2 culture bottle, and once the cells grow to a density of 60% to 80%, the culture solution was removed; and the cells were washed with 7 mL of PBS (Phosphate Buffered Saline), and then digested by adding 3 mL of Detachin.
1.2 After the digestion was complete, 7 mL of culture solution was added for neutralization, and the mixture was centrifuged; and the supernatant was pipetted out, and then 5 mL of culture solution was added for resuspension to ensure that the cells reached a density of 2 to 5×10^6/mL.
The single-cell high-impedance sealing and the whole-cell mode formation process were all automatically completed by the Qpatch instrument. After the whole-cell recording mode was obtained, the cells were clamped at −80 millivolt; before a 5 second +40 millivolt depolarization stimulus was given, a 50 millisecond −50 millivolt pre-voltage was given, then repolarized to −50 millivolt for 5 seconds, and then returned to −80 millivolt. Such a voltage stimulus was applied every 15 seconds and recorded for 2 minutes, and then extracellular fluid was given and recorded for 5 minutes, followed by drug administration. […]
The experimental data was analyzed by GraphPad Prism 5.0 software. […]

human VEGFR2 = target: T4, human VEGFR2 (Homo sapiens, UniProt P35968); assay: 33P isotope-labeled kinase activity test (Reaction Biology Corp), VEGFR2; assay type: biochemical; details: 33P-ATP 20 μM, kinase 1 nM, 120 min room temperature
T4 construct: purchased Invitrogen PR5992C
T4 sequence (P35968 20-1356): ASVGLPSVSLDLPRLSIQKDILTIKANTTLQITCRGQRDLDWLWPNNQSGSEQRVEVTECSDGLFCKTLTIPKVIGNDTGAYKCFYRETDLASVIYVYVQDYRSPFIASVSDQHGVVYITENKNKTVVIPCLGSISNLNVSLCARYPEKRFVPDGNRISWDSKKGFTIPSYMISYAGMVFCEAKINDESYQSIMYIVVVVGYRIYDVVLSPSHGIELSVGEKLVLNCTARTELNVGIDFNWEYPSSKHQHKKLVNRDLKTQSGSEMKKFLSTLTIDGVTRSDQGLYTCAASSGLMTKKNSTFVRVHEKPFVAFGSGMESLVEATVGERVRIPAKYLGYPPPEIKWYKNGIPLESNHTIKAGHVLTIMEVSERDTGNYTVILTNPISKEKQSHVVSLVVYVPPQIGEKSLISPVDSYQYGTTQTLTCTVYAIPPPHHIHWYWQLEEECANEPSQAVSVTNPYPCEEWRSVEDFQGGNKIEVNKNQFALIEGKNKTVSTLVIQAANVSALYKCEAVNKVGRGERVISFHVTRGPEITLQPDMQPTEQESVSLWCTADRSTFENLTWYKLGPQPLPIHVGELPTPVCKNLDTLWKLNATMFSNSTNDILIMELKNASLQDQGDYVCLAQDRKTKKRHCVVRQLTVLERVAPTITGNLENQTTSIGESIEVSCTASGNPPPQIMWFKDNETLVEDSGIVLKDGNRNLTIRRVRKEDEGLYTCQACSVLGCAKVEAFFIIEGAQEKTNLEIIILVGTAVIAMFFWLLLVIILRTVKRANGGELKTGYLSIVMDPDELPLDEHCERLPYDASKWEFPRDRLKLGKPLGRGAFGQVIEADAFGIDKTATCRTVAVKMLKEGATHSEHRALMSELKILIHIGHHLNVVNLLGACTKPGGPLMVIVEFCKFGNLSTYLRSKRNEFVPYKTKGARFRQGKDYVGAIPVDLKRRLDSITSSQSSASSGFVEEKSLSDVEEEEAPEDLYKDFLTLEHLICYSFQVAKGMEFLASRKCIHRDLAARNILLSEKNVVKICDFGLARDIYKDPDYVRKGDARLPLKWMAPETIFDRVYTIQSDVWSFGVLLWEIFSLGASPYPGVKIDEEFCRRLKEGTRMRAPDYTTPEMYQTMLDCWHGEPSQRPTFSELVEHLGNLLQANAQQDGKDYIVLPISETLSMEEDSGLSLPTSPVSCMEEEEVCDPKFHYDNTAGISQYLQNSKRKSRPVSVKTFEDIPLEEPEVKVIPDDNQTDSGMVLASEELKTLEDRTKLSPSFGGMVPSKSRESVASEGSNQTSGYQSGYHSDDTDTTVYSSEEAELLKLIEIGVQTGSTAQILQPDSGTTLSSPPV
Experimental: as §1, §2, §3

T1 sequence (P11362 22-822): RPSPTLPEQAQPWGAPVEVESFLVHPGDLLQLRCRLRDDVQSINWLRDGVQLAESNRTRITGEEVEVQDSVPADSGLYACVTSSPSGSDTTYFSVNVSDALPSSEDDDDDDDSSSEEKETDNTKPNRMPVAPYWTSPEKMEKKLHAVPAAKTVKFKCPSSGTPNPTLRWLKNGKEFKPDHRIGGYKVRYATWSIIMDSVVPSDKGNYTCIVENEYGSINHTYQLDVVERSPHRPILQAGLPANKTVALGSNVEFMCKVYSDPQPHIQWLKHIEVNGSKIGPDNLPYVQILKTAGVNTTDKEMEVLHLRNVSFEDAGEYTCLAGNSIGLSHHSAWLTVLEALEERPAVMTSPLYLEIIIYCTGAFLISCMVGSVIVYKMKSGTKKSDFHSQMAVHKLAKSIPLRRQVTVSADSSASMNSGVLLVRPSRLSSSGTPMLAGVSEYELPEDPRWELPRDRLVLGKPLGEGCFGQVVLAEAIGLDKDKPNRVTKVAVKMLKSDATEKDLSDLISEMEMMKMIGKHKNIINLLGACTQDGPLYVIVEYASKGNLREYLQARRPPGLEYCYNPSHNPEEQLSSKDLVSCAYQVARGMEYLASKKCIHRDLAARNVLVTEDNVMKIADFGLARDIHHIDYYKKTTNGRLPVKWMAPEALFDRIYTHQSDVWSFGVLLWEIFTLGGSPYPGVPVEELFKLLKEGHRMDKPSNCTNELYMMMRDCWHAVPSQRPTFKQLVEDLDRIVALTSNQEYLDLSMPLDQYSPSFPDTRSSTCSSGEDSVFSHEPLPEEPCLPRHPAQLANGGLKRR

Cn1cc(-c2ccc3c(-c4cc(NS(=O)(=O)C5CC5)cc(-c5ccc(F)cc5F)c4)cnn3c2)cn1 [Compound 1] showed an IC50 (human FGFR1) of 6.29 nM, a Vd [1] of 1.25 L/kg and an AUC(0-t) [1] of 0.751 µM·h. The clearance [1] was 8.53 mL/min/kg, the half-life [1] was 1.52 h and the bioavailability [1] was 74%. It also gave an AUC [1] of 2.48 µM·h, a Cmax [1] of 540 nM and a Tmax [1] of 2 h.
Work on CCS(=O)(=O)Nc1cc(-c2ccc(F)cc2F)cc(-c2cnn3cc(-c4cnn(C)c4)ccc23)c1 [Compound 2] yielded an IC50 (human FGFR2) of 2.66 nM, an IC50 (human FGFR1) of 2.86 nM and an IC50 [2] of 16.3 nM. For the same compound, the Vd [1] was 1.2 L/kg, the AUC(0-t) [1] was 1.14 µM·h and the clearance [1] was 6.53 mL/min/kg. The half-life [1] was 2.12 h, the bioavailability [1] was 43.8% and the AUC [1] was 1.98 µM·h. For the same compound, the Cmax [1] was 388 nM, the Tmax [1] was 2 h and the “TGI (%) (tumor growth inhibition rate) on day 25” value ([3]; PO 10 mpk/QD) was 74%. The IC50 [4] was over 40000 nM.
Cn1cc(-c2ccc3c(-c4cc(NS(C)(=O)=O)cc(-c5ccc(F)cc5F)c4)cnn3c2)cn1 [Compound 4] gave an IC50 (human FGFR2) of 2.5 nM, an IC50 (human FGFR1) of 1.63 nM and an IC50 [2] of 14.5 nM. For the same compound, the Vd [1] was 1.4 L/kg, the AUC(0-t) [1] was 0.548 µM·h and the clearance [1] was 12.6 mL/min/kg. For the same compound, the half-life [1] was 1.17 h, the bioavailability [1] was 73.2% and the AUC [1] was 1.9 µM·h. The Cmax [1] was 463 nM, the Tmax [1] was 2 h and the “TGI (%) (tumor growth inhibition rate) on day 25” value ([3]; PO 20/30/20 mpk/QD (30 mg/kg/day from day 9, 20 mg/kg/day from day 12)) was 70%.
Work on Cn1cc(-c2cnc3c(-c4cc(NS(=O)(=O)C5CC5)cc(-c5ccc(F)cc5F)c4)cnn3c2)cn1 [Compound 5] yielded an IC50 (human FGFR1) of 9.34 nM and an IC50 [4] of over 40000 nM.
With Cn1cc(-c2ccc3c(c2)ncn3-c2cc(NS(=O)(=O)C3CC3)cc(-c3ccc(F)cc3F)c2)cn1 [reference compound] the IC50 (human VEGFR2) was 27.2 nM, the IC50 (human FGFR2) was 29.9 nM and the IC50 (human FGFR1) was 22.2 nM.
